Laboratory results: US11725011B2, “Bicyclic urea kinase inhibitors and uses thereof” (The Broad Institute, Inc., priority 2016, dated 2023)

Legend:
Assay in all cases: KINOMEscan
Format in all cases: binding
Conditions in all cases: 1 uM
PKMYT1 = PKMYT1 (Homo sapiens (Human), UniProt Q99640)
BRSK2 = BRSK2 (Homo sapiens (Human), UniProt Q8IWQ3)
RIPK4 = RIPK4 (Homo sapiens (Human), UniProt P57078)
PRKCQ = PRKCQ (Homo sapiens (Human), UniProt Q04759)
ROCK1 = ROCK1 (Homo sapiens (Human), UniProt Q13464)
SGK3 = SGK3 (Homo sapiens (Human), UniProt Q96BR1)
TRKB = TRKB (Homo sapiens (Human), UniProt Q16620)
Chain of TRKB (Q16620 32-822): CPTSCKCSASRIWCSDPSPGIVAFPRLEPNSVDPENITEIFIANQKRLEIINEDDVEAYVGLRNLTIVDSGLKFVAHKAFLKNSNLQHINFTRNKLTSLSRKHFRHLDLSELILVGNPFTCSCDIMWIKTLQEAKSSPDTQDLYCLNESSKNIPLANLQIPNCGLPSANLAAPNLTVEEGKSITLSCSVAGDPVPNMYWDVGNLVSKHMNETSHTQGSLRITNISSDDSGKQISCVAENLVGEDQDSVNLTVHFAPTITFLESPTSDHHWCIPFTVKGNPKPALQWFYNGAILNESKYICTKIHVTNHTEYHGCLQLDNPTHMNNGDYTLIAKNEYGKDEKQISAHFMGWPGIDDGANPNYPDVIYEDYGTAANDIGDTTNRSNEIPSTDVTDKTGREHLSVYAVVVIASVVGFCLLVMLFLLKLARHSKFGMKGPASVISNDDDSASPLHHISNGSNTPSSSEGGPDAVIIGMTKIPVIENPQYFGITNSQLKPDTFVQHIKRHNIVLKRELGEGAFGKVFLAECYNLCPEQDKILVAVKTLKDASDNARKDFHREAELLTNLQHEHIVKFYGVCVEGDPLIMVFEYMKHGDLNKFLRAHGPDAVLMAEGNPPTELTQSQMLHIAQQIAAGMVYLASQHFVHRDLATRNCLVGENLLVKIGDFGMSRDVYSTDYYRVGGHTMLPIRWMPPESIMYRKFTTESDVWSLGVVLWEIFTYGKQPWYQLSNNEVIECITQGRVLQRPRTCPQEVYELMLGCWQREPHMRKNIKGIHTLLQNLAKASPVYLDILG

WEE2 = WEE2 (Homo sapiens (Human), UniProt P0C1S8)
KIT (D816H) = KIT (D816H) (Homo sapiens (Human), UniProt P10721, D816H)
PIK3CA (E545K) = PIK3CA (E545K) (Homo sapiens (Human), UniProt P42336, E545K)
SGK2 = SGK2 (Homo sapiens (Human), UniProt Q9HBY8)
RAF1 = RAF1 (Homo sapiens (Human), UniProt P04049)
EPHA6 = EPHA6 (Homo sapiens (Human), UniProt Q9UF33)
Chain of EPHA6 (Q9UF33 23-1036): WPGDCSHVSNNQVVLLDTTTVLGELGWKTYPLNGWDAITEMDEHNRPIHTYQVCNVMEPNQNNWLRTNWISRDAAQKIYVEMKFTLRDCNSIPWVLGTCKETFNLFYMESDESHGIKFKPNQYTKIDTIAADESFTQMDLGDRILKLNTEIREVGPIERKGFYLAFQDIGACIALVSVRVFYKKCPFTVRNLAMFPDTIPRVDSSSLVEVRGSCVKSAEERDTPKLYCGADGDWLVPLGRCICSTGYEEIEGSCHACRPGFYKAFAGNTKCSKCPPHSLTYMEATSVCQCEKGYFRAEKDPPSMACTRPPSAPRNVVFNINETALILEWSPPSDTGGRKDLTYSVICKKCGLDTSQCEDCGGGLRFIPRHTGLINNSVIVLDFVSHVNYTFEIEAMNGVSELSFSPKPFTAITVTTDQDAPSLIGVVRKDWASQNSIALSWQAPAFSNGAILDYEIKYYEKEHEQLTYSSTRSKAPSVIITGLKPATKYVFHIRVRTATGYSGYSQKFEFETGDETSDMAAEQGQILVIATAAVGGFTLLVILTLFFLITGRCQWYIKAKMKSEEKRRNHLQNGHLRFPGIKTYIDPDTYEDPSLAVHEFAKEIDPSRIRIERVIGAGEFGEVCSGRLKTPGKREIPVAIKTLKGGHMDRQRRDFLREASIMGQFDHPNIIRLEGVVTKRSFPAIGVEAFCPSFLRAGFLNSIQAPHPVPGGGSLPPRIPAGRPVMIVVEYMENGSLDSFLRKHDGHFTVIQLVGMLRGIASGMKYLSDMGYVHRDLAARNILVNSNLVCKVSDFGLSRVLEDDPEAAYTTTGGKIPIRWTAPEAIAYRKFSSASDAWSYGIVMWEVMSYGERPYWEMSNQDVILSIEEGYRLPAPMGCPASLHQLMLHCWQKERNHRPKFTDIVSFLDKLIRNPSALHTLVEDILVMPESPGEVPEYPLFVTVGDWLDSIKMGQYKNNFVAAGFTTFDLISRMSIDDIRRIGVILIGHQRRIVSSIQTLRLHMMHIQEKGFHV

MAP4K5 = MAP4K5 (Homo sapiens (Human), UniProt Q9Y4K4)
ARK5 = ARK5 (Homo sapiens (Human), UniProt O60285)
MET (M1250T) = MET (M1250T) (Homo sapiens (Human), UniProt P08581, M1250T)
DLK = DLK (Homo sapiens (Human), UniProt Q12852)
CDKL5 = CDKL5 (Homo sapiens (Human), UniProt O76039)
MAP3K2 = MAP3K2 (Homo sapiens (Human), UniProt Q9Y2U5)
CSNK1G3 = CSNK1G3 (Homo sapiens (Human), UniProt Q9Y6M4)
PRKD1 = PRKD1 (Homo sapiens (Human), UniProt Q15139)
ABL2 = ABL2 (Homo sapiens (Human), UniProt P42684)
WEE1 = WEE1 (Homo sapiens (Human), UniProt P30291)
TNK1 = TNK1 (Homo sapiens (Human), UniProt Q13470)
Chain of TNK1 (Q13470 whole entry): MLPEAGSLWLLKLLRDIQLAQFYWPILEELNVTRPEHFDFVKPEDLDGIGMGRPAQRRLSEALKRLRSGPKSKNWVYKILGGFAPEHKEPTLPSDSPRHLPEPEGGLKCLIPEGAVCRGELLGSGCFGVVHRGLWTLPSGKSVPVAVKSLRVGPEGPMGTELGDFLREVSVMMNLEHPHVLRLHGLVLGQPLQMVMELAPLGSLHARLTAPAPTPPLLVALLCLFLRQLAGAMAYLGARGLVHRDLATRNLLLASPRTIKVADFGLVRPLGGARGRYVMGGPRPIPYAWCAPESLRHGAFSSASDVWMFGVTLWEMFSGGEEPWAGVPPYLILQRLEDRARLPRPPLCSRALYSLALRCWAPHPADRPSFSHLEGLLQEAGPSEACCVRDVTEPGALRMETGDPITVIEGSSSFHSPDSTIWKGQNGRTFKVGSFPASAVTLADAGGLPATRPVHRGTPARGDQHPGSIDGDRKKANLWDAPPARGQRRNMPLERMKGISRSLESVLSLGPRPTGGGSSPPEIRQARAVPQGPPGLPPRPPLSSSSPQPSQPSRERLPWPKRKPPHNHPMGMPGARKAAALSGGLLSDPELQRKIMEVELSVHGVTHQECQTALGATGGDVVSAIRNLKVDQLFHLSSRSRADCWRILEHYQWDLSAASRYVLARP

ULK3 = ULK3 (Homo sapiens (Human), UniProt Q6PHR2)
MAPKAPK5 = MAPKAPK5 (Homo sapiens (Human), UniProt Q8IW41)
DAPK1 = DAPK1 (Homo sapiens (Human), UniProt P53355)
CAMK1 = CAMK1 (Homo sapiens (Human), UniProt Q14012)
AURKB = AURKB (Homo sapiens (Human), UniProt Q96GD4)
Chain of AURKB (Q96GD4 whole entry): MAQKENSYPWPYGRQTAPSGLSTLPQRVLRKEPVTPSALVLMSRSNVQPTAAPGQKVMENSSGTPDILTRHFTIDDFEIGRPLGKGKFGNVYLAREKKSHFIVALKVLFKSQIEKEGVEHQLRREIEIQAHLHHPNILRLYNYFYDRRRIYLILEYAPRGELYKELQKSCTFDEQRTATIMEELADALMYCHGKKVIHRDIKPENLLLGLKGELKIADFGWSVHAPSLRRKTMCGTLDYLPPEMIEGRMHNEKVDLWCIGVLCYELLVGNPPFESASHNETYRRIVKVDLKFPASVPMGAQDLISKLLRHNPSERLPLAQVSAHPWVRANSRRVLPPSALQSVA

PIK3CA (H1047Y) = PIK3CA (H1047Y) (Homo sapiens (Human), UniProt P42336, H1047Y)
FGFR1 = FGFR1 (Homo sapiens (Human), UniProt P11362)
LZK = LZK (Homo sapiens (Human), UniProt O43283)
FLT3 (D835Y) = FLT3 (D835Y) (Homo sapiens (Human), UniProt P36888, D835Y)
TSSK1B = TSSK1B (Homo sapiens (Human), UniProt Q9BXA7)
Chain of TSSK1B (Q9BXA7 whole entry): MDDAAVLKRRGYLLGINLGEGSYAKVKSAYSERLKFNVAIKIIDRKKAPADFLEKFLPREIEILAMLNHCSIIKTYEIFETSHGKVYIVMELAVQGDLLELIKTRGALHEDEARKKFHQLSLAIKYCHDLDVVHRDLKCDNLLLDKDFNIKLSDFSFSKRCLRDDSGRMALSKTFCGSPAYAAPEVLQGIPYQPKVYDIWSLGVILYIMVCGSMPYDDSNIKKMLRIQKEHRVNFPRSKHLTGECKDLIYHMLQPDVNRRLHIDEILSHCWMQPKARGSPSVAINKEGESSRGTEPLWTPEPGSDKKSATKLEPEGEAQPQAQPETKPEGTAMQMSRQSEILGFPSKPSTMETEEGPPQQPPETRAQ

ABL1-phosphorylated = ABL1-phosphorylated (Homo sapiens (Human), UniProt P00519)
PFTK1 = PFTK1 (Homo sapiens (Human), UniProt O94921)
PKAC-alpha = PKAC-alpha (Homo sapiens (Human), UniProt P17612)
BRK = BRK (Homo sapiens (Human), UniProt Q13882)
Chain of BRK (Q13882 whole entry): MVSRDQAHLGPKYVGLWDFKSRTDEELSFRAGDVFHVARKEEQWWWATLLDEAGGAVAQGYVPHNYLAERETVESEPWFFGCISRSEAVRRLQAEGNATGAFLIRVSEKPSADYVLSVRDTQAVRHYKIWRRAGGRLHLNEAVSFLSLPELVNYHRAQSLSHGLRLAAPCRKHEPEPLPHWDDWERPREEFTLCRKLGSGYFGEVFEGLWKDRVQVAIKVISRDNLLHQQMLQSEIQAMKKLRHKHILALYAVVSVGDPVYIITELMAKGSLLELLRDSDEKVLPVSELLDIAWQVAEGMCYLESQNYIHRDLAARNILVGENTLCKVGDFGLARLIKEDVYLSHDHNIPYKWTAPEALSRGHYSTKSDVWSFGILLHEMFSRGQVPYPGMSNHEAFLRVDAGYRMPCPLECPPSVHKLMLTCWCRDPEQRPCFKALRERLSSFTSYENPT

FYN = FYN (Homo sapiens (Human), UniProt P06241)
KIT (A829P) = KIT (A829P) (Homo sapiens (Human), UniProt P10721, A829P)
PIK3C2G = PIK3C2G (Homo sapiens (Human), UniProt O75747)

Chain of RIPK4 (P57078 whole entry): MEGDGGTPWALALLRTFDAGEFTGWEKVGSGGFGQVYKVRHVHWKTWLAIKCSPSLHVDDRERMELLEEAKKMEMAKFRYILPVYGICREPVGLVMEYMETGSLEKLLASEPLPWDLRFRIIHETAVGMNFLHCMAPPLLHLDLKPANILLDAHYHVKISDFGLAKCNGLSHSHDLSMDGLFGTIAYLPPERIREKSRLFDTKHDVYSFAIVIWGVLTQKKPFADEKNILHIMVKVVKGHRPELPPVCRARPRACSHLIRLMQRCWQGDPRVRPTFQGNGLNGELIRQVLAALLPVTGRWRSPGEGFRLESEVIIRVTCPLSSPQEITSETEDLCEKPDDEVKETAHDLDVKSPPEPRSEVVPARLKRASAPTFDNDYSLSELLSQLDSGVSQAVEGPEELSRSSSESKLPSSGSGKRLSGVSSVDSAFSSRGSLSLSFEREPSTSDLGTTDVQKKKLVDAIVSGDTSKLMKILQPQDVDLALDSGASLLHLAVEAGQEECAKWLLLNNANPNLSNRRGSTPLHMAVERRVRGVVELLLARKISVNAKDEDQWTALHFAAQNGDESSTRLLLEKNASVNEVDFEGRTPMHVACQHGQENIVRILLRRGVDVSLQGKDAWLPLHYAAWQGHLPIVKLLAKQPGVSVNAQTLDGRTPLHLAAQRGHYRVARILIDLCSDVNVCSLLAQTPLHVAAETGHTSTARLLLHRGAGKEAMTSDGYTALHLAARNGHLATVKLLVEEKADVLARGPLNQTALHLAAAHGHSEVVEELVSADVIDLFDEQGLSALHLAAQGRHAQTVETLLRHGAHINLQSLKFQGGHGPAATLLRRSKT
Chain of PKMYT1 (Q99640 whole entry): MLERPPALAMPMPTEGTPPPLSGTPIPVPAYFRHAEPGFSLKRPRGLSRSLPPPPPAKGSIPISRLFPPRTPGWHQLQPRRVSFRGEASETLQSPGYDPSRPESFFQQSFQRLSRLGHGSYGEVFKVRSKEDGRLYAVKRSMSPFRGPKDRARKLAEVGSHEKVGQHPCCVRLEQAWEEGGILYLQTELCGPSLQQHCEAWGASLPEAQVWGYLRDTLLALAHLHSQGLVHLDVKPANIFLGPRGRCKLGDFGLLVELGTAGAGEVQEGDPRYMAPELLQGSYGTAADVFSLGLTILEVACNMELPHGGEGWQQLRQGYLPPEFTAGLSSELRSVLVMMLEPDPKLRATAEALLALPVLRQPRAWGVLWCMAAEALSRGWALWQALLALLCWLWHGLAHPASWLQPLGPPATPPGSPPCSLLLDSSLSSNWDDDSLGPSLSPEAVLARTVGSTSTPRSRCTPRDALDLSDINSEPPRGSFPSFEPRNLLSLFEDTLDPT

**Q.** Which results are given for `COc1ccc(N2C(=O)N(c3c(C)cccc3C)Cc3cnc(Nc4ccc(N5CCN(C)CC5)cc4)nc32)c(OC)c1` [HG-11-136-01]?
**A.** KINOMEscan PKMYT1 (PKMYT1): 42; KINOMEscan BRSK2 (BRSK2): 91; KINOMEscan RIPK4 (RIPK4): 55; KINOMEscan PRKCQ (PRKCQ): 80; KINOMEscan ROCK1 (ROCK1): 81; KINOMEscan SGK3 (SGK3): 77; KINOMEscan TRKB (TRKB): 63; KINOMEscan WEE2 (WEE2): 82; KINOMEscan KIT (D816H) (KIT (D816H)): 6; KINOMEscan PIK3CA (E545K) (PIK3CA (E545K)): 98; KINOMEscan SGK2 (SGK2): 76; KINOMEscan RAF1 (RAF1): 93; KINOMEscan EPHA6 (EPHA6): 0.2; KINOMEscan MAP4K5 (MAP4K5): 0.3; KINOMEscan ARK5 (ARK5): 8.2; KINOMEscan MET (M1250T) (MET (M1250T)): 46; KINOMEscan DLK (DLK): 6.6; KINOMEscan CDKL5 (CDKL5): 98; KINOMEscan MAP3K2 (MAP3K2): 0.05; KINOMEscan CSNK1G3 (CSNK1G3): 84; KINOMEscan PRKD1 (PRKD1): 3.6; KINOMEscan ABL2 (ABL2): 0.35; KINOMEscan WEE1 (WEE1): 69; KINOMEscan TNK1 (TNK1): 0.9; KINOMEscan ULK3 (ULK3): 2; KINOMEscan MAPKAPK5 (MAPKAPK5): 96; KINOMEscan DAPK1 (DAPK1): 63; KINOMEscan CAMK1 (CAMK1): 82; KINOMEscan AURKB (AURKB): 26; KINOMEscan PIK3CA (H1047Y) (PIK3CA (H1047Y)): 63; KINOMEscan FGFR1 (FGFR1): 0.15; KINOMEscan LZK (LZK): 4; KINOMEscan FLT3 (D835Y) (FLT3 (D835Y)): 14; KINOMEscan TSSK1B (TSSK1B): 50; KINOMEscan ABL1-phosphorylated (ABL1-phosphorylated): 0; KINOMEscan PFTK1 (PFTK1): 100; KINOMEscan PKAC-alpha (PKAC-alpha): 85; KINOMEscan BRK (BRK): 0.45; KINOMEscan FYN (FYN): 0.35; KINOMEscan KIT (A829P) (KIT (A829P)): 3.6; KINOMEscan PIK3C2G (PIK3C2G): 87
